Measured values from PMC9658984, “Acetylation Enhances the Anticancer Activity and Oral Bioavailability of 5-Demethyltangeretin” (International Journal of Molecular Sciences, 2022).

Tests used:
Cdc25c = assay: Western blot protein expression, Cdc25c; format: cell-based, human; settings: PC-3 cells, 10 µM, time-dependent
Procedure: (§1) Western blot was performed to analyze the protein expression in the PC-3 Cells. The cells were exposed to indicated concentrations of 5-ATAN for various time periods at 37 °C. Then, they were washed with cold PBS and harvested, and a Western blot was conducted as previously described.

caspase-3 = assay: Caspase-3 activity by flow cytometry (CaspGLOW staining); format: cell-based, human; settings: PC-3 cells, 48 h
Procedure: (§2) The PC-3 cells were treated with the indicated concentration of 5-DTAN or 5-ATAN for 48 h, and then cells were collected and stained by a CaspGLOW^TM Fluorescein Active Caspase-3 Staining Kit (Thermo Fisher Scientific, MA, USA) or 3,3′-dihexyloxacarbocyanine iodide (DiOC6, Merck Millipore, Burlington, MA, USA) for caspase-3 activity and mitochondria membrane potential analysis, respectively. The percentages of caspase-3-activated or DiOC6-positive cells were measured using a flow cytometer and calculated by the CellQuest Pro software.

PC-3 cells [1] = assay: Colony formation assay; format: cell-based, human; settings: PC-3 cells, 1.25, 2.5 and 5 µM, 14 days
Procedure: The colony formation assay was conducted using a procedure modified from the previous report. PC-3 cells were seeded in 6-well plates at a density of 500 cells/well and allowed to attach for 24 h. Subsequently, the cells were treated with various concentrations of 5-ATAN. After 14 days of incubation, the colonies formed were observed by crystal violet staining and photographed. The wound healing assay was performed to assess the effect of 5-ATAN on the migration ability of PC-3 cells. Cells were seeded into a 6 cm dish at a cell density of 1 × 10^6 cells/well. After being cultured at 37 °C for 24 h, a 200 µL yellow pipette tip was used to scrape a gap in the middle of the dish. After washing twice with 1X PBS solution, the medium was replaced with fresh, serum-free medium containing different concentrations of 5-ATAN and incubated for 24 h. Then, the images were taken with an inverted phase contrast microscope at a magnification of 100×, and the Image J software was used for the measurement of the wound width. The percentage of cell migration (% of control) was calculated by measuring the movement of the cells into the scratch area after 24 h of treatment with DMSO or 5-ATAN.

MMP-9 = assay: Western blot protein expression, MMP-9; format: cell-based, human; settings: PC-3 cells, 5 µM, effect enhanced with treatment time
Procedure: as §1

Cdc2 = assay: Western blot protein expression, Cdc2; format: cell-based, human; settings: PC-3 cells, 10 µM, only after 48 h
Procedure: as §1

Bcl-xL = assay: Western blot protein expression, Bcl-xL; format: cell-based, human; settings: PC-3 cells, 10 µM
Procedure: as §1

Cyclin B1 = assay: Western blot protein expression, Cyclin B1; format: cell-based, human; settings: PC-3 cells, 10 µM, time-dependent
Procedure: as §1

PC-3 cells [2] = assay: Mitochondrial membrane potential (DiOC6, flow cytometry); format: cell-based, human; settings: 2.5-10 µM, 48 h
Procedure: as §2

PC-3 cells [3] = assay: Cell cycle distribution / sub-G1 apoptotic ratio by PI flow cytometry; format: cell-based, human; settings: 48 h
Procedure: PC-3 cells were seeded in 96-well plates at a density of 2.5 × 10^3 cells/well and allowed to attach for 24 h. The medium was changed to serum-free RPMI supplemented with 0–20 μM TAN, 5-DTAN, or 5-ATAN, and then incubated for an additional 48 h. The cell viability was determined by the MTT assay and represented as a percentage of the growth of the DMSO-treated cells. FACScan flow cytometer (Becton Dickinson, San Jose, CA, USA) was used to analyze the cell cycle distribution as previously mentioned. Briefly, PC-3 cells treated with various concentrations of 5-DTAN or 5-ATAN for 48 h were trypsinized and gently fixed in 70% ice-cold ethanol and stored at −20 °C for at least 24 h. Then, the cells were washed with cold phosphate-buffered saline (PBS), followed by incubation with 40 μg/mL PI, 0.1 mg/mL RNase A, and 0.1% TritonX-100 in the dark for 30 min at room temperature. Subsequently, the cell cycle distribution of the PI-stained cells was analyzed by a FACScan flow cytometer, and the results were analyzed and calculated using ModFit LT Ver. 3.0 software. The proportion of the sub-G1 phase was quantitated and represented as the apoptotic ratio. Furthermore, a QIAamp DNA mini kit was used to extract DNA from the PC-3 cells treated with 5-DTAN or 5-ATAN for 48 h. Then, the extracted DNA was loaded on a 2% agarose gel containing HealthView^TM Nucleic Acid Stain (Genomics, New Taipei, Taiwan) for electrophoresis at 50 V. The gel was visualized under UV light, and the DNA fragmentation pattern was photographed.

PC-3 cell xenografts = assay: Tumor growth inhibition in PC-3 cell xenograft model; format: in vivo, nude mice
Description: Male nu/nu mice were obtained from BioLasco Taiwan (Taipei, Taiwan) and maintained on a standard laboratory chow (Purina rodent chow 5001, Purina, St. Louis, MO, USA). At 5 weeks of age, nude mice were used for the xenograft experiment. For the oral bioavailability study, 5-week-old male […] mice were purchased from the National Laboratory Animal Center (Taipei, Taiwan), and the experiment was started after 1 week of acclimation. All mice were housed in an air-conditioned room (temperature: 22 ± 2 °C; humidity: 50–60%) under standard conditions (12 h light/12 h dark cycle). All animal studies were approved by the National Pingtung University of Science and Technology, Institutional Animal Care and Use Committee with protocol numbers NPUST-102-015 and NPUST-105-045.
The 5-week-old nude mice were divided into three groups (n = 6) and administered with the vehicle, 5-DTAN (10 mg/kg), and 5-ATAN (10 mg/kg), respectively. Tumors were established by subcutaneous injections of PC-3 cells (1 × 10^6 cells) into the right flank side of nude mice. The tumor size was measured twice a week with digital calipers, and the tumor volume (V) was calculated by the following formula: V = length × width^2 × 0.5. On day 24, the mice were sacrificed by CO2, and the tumors were harvested and weighed.

## COc1ccc(-c2cc(=O)c3c(OC(C)=O)c(OC)c(OC)c(OC)c3o2)cc1 [5-ATAN, 5-acetyloxy-6,7,8,4′-tetramethoxyflavone]
Cdc25c
  Expression of Cdc25c: dramatically down-regulated
caspase-3; 2.5 μM
  Percentage of caspase-3 activity: 7.2 ± 0.6%
caspase-3; 5 μM
  Percentage of caspase-3 activity: 9.1 ± 1.7%
caspase-3; 10 μM
  Percentage of caspase-3 activity: 18.8 ± 02.4%
PC-3 cells [1]
  Number of colonies: dose-dependently decreased
MMP-9
  Expression of MMP-9: significantly inhibited
Cdc2
  Expression of Cdc-2: reduced
Bcl-xL
  Expression of Bcl-xL: marked decrease
Cyclin B1
  Expression of Cyclin B1: dramatically down-regulated
PC-3 cells [2]
  Effect on mitochondrial membrane potential: dose-dependent decline
PC-3 cells [3]; 2.5 μM
  Cell Cycle Distribution (%) G0/G1: 58.5 ± 1.1 ^A %
  Cell Cycle Distribution (%) G2/M: 34.7 ± 0.8 ^C %
  Cell Cycle Distribution (%) S: 6.8 ± 0.3 ^B %
PC-3 cells [3]; 5 μM
  Cell Cycle Distribution (%) G0/G1: 49.1 ± 0.3 ^B %
  Cell Cycle Distribution (%) G2/M: 45.7 ± 0.5 ^B %
  Cell Cycle Distribution (%) S: 5.2 ± 0.3 ^C %
PC-3 cells [3]; 10 μM
  Apoptotic cells (sub-G1): 22.2%
  Cell Cycle Distribution (%) G0/G1: 44.7 ± 0.3 ^C %
  Cell Cycle Distribution (%) G2/M: 50.3 ± 1.3 ^A %
  Cell Cycle Distribution (%) S: 4.6 ± 0.5 ^D %
PC-3 cell xenografts; 10 mg/kg daily oral, nude mice
  Tumor growth inhibitory rate, estimated by the means of tumor weight: 61.9%
PC-3 cell xenografts; 10 mg/kg daily oral, nude mice, day 24, control 2.47 ± 0.43 g
  Tumor weight at the end of the experiment: 0.94 ± 0.18 g
PC-3 cell xenografts; 10 mg/kg daily, PC-3 cell xenografts in nude mice
  Effect on tumor volume: significantly suppressed
